Results reported in ChEMBL document CHEMBL3301562, “MMV Box screening against Plasmodium falciparum protein kinases and aminoacyl tRNA synthetases”.

Legend:
Type in all cases: functional
[1] = biological target: T1, Putative uncharacterized protein pk7 (Plasmodium falciparum, UniProt O96214); assay: Final concentrations were 1 uM ATP, 2 mM DTT, 20 mM MgCl2, 2 mM MnCl2, 0.01% BSA, and 6 ug/ml PK7, in a buffer of 20 mM Tris-HCl (pH 7.5). The enzyme itself was the only substrate present (since autophosphorylation occurs); 100 uM 1NA-PP1 was used as a control inhibitor. Incubation time was 3 hours.
T1 sequence (O96214 whole entry): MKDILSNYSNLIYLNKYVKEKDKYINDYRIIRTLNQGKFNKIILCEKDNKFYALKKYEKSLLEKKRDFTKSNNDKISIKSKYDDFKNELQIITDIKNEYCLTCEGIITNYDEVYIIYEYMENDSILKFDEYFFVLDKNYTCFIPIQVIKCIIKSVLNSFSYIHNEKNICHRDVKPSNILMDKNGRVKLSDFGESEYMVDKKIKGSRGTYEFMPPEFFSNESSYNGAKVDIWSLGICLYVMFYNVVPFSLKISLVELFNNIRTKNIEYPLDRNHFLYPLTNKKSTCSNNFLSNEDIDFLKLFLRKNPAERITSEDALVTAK

[2] = biological target: T2, Cdk-related protein kinase 6 (Plasmodium falciparum, UniProt O77239); assay: Final concentrations were 1.5 uM ATP, 5 mM MnCl2, and 15 ug/ml PK6 in a buffer of 100 mM Tris-HCl (pH 7.5). 50 ug/mL MBP was provided as the substrate; 10 uM staurosporine was used as a control inhibitor. Incubation time was 3 hours and 40 minutes.The catalytic activity of each kinase was considered proportional to ATP consumed, as determined from measurements of residual [ATP] with the luciferase-based reagent Kinase-Glo (Promega) following incubation. Luminescence (proportional to residual [ATP]) was measured on the plate readers FLx800 (BioTek Instruments, Winooski, VT, USA) and MicroBeta2.
T2 sequence (O77239 whole entry): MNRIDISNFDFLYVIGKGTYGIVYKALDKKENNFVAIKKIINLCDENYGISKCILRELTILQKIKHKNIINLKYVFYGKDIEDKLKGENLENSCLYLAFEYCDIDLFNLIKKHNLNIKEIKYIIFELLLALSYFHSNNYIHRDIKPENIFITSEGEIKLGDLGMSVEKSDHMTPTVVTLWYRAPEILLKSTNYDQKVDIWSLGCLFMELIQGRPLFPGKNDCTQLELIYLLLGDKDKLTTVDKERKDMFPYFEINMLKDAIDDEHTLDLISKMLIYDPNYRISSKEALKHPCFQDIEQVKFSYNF

[3] = biological target: T3, Calcium-dependent protein kinase 4 (Plasmodium falciparum (isolate 3D7), UniProt Q8IBS5); assay: MMV: CDPK4 Protein kinase inhibition assay using recombinant PfCDPK4, syntide2 peptide substrate, ATP and KinaseGlo to measure % inhibition at 1 uM MMV box compound.
T3 sequence (Q8IBS5 whole entry): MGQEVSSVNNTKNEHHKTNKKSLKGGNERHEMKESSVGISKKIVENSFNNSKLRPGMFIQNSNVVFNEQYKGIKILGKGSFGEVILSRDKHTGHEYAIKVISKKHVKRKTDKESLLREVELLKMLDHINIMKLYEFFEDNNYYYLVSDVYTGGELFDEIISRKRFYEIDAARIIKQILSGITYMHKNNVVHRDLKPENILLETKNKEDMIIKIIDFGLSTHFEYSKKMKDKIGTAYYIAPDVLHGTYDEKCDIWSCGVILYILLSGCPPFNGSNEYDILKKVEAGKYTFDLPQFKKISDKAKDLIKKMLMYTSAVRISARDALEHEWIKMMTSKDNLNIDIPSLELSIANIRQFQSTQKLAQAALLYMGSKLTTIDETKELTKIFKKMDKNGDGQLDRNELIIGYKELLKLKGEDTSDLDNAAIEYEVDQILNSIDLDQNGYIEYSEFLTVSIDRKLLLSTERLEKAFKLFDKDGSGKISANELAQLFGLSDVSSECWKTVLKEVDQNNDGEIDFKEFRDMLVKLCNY

Proline--tRNA ligase = biological target: T4, Proline--tRNA ligase (Plasmodium falciparum (isolate 3D7), UniProt Q8I5R7); assay: MMV: ProRS recombinant Plasmodium falciparum Prolyl-tRNA-synthetase, assay with yeast tRNA, ATP, and proline and 3 uM MMV malaria box compound, assay read out with kinase glo as % inhibition.
T4 sequence (Q8I5R7 whole entry): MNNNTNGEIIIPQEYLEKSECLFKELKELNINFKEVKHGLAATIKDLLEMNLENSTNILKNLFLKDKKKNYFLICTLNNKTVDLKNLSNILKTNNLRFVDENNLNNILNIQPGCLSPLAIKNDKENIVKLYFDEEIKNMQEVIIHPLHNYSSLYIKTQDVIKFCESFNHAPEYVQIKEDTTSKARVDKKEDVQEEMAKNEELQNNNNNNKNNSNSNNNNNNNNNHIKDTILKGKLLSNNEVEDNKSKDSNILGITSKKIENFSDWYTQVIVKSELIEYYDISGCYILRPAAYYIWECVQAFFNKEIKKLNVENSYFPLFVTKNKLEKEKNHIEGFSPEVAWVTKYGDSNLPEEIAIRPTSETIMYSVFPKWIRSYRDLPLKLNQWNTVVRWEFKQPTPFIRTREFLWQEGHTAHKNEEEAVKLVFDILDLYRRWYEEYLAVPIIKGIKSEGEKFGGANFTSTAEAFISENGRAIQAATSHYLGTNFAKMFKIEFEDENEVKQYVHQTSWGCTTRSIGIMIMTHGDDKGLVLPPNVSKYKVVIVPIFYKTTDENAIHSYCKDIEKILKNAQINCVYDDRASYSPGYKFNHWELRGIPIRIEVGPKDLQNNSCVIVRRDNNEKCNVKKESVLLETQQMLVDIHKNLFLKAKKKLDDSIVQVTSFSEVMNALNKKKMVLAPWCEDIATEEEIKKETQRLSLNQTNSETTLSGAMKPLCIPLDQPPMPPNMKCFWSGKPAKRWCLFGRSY

[4] = biological target: T5, Mitogen-activated protein kinase (Plasmodium falciparum, UniProt Q25917); assay: Final concentrations were 1 uM ATP, 0.5 mM DTT, 1 mM MgCl2, 0.5 mg/mL BSA, and 10 ug/ml MAP2 in a buffer of 50 mM HEPES (pH 7.0). 0.5 mg/mL histone III-S served as the substrate (13); 100 uM AMP-PNP, an ATP analog, was used as a control inhibitor. Incubation time was 4 hours.
T5 sequence (Q25917 whole entry): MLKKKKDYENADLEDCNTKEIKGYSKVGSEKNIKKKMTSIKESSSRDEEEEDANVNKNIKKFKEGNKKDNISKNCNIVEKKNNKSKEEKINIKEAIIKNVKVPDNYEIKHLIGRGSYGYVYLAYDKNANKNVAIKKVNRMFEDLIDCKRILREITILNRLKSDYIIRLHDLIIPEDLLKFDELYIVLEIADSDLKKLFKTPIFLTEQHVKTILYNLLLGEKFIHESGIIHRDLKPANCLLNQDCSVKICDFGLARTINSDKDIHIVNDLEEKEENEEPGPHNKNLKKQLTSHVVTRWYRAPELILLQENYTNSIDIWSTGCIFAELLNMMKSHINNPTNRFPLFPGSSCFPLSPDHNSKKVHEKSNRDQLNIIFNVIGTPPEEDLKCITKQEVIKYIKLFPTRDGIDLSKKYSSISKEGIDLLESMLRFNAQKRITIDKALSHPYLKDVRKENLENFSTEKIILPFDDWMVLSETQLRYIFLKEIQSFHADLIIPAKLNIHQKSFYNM

Lysine--tRNA ligase = Lysine--tRNA ligase (Plasmodium falciparum (isolate 3D7), UniProt Q8IDJ8); assay: MMV: KRS recombinant Plasmodium falciparum Lysyl-tRNA-synthetase, assay with yeast tRNA, ATP, and lysine and 3 uM MMV malaria box compound, assay read out with kinase glo as % inhibition.
Lysine--tRNA ligase, sequence (Q8IDJ8 whole entry): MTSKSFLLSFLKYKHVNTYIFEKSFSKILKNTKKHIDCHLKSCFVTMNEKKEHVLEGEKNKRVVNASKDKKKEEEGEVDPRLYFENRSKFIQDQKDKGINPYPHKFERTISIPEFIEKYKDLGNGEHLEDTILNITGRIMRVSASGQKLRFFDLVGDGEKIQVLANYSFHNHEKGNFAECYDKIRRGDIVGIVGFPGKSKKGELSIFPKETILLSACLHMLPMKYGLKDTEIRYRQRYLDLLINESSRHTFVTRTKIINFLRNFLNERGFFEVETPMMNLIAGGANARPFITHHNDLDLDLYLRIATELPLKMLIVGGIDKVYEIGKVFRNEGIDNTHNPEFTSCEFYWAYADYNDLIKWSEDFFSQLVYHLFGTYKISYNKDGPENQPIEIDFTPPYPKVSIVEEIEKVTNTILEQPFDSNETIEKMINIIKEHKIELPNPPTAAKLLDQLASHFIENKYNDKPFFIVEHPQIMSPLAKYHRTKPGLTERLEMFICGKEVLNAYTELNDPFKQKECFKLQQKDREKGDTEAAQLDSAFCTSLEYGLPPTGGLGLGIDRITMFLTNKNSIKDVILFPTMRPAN

[5] = biological target: Calcium-dependent protein kinase 1 (Plasmodium falciparum, UniProt P62344); assay: MMV: CDPK1 Protein kinase inhibition assay using recombinant PfCDPK1, syntide 2 peptide substrate, ATP and KinaseGlo to measure % inhibition at 1 uM MMV box compound.
Calcium-dependent protein kinase 1, sequence (P62344 whole entry): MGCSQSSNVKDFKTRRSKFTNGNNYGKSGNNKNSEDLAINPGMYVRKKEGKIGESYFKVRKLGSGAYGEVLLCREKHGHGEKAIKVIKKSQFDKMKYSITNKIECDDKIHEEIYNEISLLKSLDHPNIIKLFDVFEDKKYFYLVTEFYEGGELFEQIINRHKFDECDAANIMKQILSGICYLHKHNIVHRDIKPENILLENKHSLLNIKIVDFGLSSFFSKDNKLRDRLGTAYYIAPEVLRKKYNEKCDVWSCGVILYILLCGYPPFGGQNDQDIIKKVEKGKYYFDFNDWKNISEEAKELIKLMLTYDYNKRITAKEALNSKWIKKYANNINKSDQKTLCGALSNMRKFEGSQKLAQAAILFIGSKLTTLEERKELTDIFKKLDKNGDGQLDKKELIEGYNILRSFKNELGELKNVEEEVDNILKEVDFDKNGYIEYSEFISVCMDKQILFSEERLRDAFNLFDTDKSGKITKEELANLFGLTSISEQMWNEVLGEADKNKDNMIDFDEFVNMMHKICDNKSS

Row | SMILES | IC50 [1] [nM] | IC50 [2] [nM] | IC50 [3] [nM] | IC50 (Proline--tRNA ligase) [nM] | IC50 [4] [nM] | IC50 (Lysine--tRNA ligase) [nM] | IC50 [5] [nM]
1 | CCN1CCN(c2cc(C)c3cc(NC(=O)c4ccc(OC)c(OC)c4)ccc3n2)CC1 | > 1000 | > 1000 | > 1000 | > 2500 | > 1000 | > 2500 | > 1000
2 | CCCN(CCC)CCCNC(=O)c1cc2c(-c3ccc(OC)c(OC)c3)nn(C)c2s1 | > 1000 | > 1000 | > 1000 | > 2500 | > 1000 | > 2500 | > 1000
3 | COc1ccccc1C(=O)ON=C(N)Cc1cccc2ccccc12 | > 1000 | > 1000 | > 1000 | > 2500 | > 1000 | > 2500 | > 1000
4 | Cc1nc2ccccc2c(O)c1CC=C(Cl)Cl | > 1000 | > 1000 | > 1000 | > 2500 | > 1000 | > 2500 | > 1000
5 | Nc1ccn([C@@H]2O[C@H](CO)[C@@H](O)[C@H]2O)c(=O)n1 [CYTIDINE] | > 1000 | > 1000 | > 1000 | > 2500 | > 1000 | > 2500 | > 1000
6 | COCCNCC(O)Cn1c2ccc(Cl)cc2c2cc(Cl)ccc21 (configuration not stated) | > 1000 | > 1000 | > 1000 | > 2500 | > 1000 | > 2500 | > 1000
7 | CCOC(=O)c1cnc2ccc(OC)cc2c1NCc1ccccc1 | > 1000 | > 1000 | > 1000 | > 2500 | > 1000 | > 2500 | > 1000
8 | Cc1cc(N2CCCC2)nc(Nc2ccc(NC(=O)CCc3ccccc3)cc2)n1 | > 1000 | > 1000 | > 1000 | > 2500 | > 1000 | > 2500 | > 1000
9 | OC1CCCCC1C1(NC(=S)Nc2ccccc2)CCCCC1 (configuration not stated) | > 1000 | > 1000 | > 1000 | > 2500 | > 1000 | > 2500 | > 1000
10 | Nc1nc(Nc2cccc(F)c2)nc2ccccc12 | > 1000 | > 1000 | > 1000 | > 2500 | > 1000 | > 2500 | > 1000
11 | Cc1cc(NC(=O)c2ccc(-c3ccccc3)cc2)no1 | > 1000 | > 1000 | > 1000 | > 2500 | > 1000 | > 2500 | > 1000
12 | O=C(Nc1ccc(N2CCCCC2)c(Cl)c1)c1ccc(Br)o1 | > 1000 | > 1000 | > 1000 | > 2500 | > 1000 | > 2500 | > 1000
13 | CCCCN(CCCC)S(=O)(=O)c1ccc(NC(=O)c2ccco2)cc1 | > 1000 | > 1000 | > 1000 | > 2500 | > 1000 | > 2500 | > 1000
14 | COc1cc(C(=O)Nc2nc3c(cc4c5c(cccc53)CC4)s2)cc(OC)c1OC | > 1000 | > 1000 | > 1000 | > 2500 | > 1000 | > 2500 | > 1000
15 | O=C(Nc1ccc(-c2nc3cc(NC(=O)c4ccc(Cl)cc4)ccc3[nH]2)cc1)c1ccc(Cl)cc1 | > 1000 | > 1000 | > 1000 | > 2500 | > 1000 | > 2500 | > 1000
16 | COc1cccc(NC(=O)[C@H](C(C)C)n2c(=O)[nH]c3ccccc3c2=O)c1 | > 1000 | > 1000 | > 1000 | > 2500 | > 1000 | > 2500 | > 1000
17 | CC(C)CNC(=O)c1c(N)n(CCc2ccccc2F)c2nc3ccccc3nc12 | > 1000 | > 1000 | > 1000 | > 2500 | > 1000 | > 2500 | > 1000
18 | Cc1cc(Nc2ccc(C)c(Cl)c2)n2nc(C(F)(F)F)nc2n1 | > 1000 | > 1000 | > 1000 | > 2500 | > 1000 | > 2500 | > 1000
19 | COc1ccc(C2c3ccc4ccccc4c3Oc3ncn(CCCn4ccnc4)c(=N)c32)cc1OC (configuration not stated) | > 1000 | > 1000 | > 1000 | > 2500 | > 1000 | > 2500 | > 1000
20 | COc1ccc(-c2nc(N3CCN(C(=O)C4CCCCC4)CC3)c3c4c(sc3n2)CCCC4)cc1 | > 1000 | > 1000 | > 1000 | > 2500 | > 1000 | > 2500 | > 1000
21 | COc1ccc2c(c1)OC(O)(C(F)(F)C(F)(F)F)CC2=O (configuration not stated) | > 1000 | > 1000 | > 1000 | > 2500 | > 1000 | > 2500 | > 1000
